Paper PMC10853903 (Analytical Chemistry, 2024)

Target: agglutinin 120 from Ricinus communis (RCA120) (Ricinus communis, UniProt P06750)
Assay: biochemical
Type: binding

## CO[C@@H]1O[C@H](CO)[C@H](O)[C@H](O)[C@H]1O [methyl-β-D-galactoside]
  Kd: 271 µM
